Data published in the supplement of paper PMC10307832.

Legend:
Experiment in all cases: relative viability (nuclei count vs DMSO), 5 days (fraction); higher = more cells survive
Decitabine + Lapatinib = compound: Nc1ncn([C@H]2C[C@H](O)[C@@H](CO)O2)c(=O)n1 [Decitabine] + CS(=O)(=O)CCNCc1ccc(-c2ccc3ncnc(Nc4ccc(OCc5cccc(F)c5)c(Cl)c4)c3c2)o1 [Lapatinib] (partner 2 µM)
Summary of the method: (§1)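 After 5 days of treatment, lung cancer cells in 1536-well plates were fixed and stained in a single step (final 0.05% Triton X-100, 1% formaldehyde, 1 ug/ml Hoechst) and their nuclei counted on 4× images. Treatment had been applied by pin tool the day after seeding as one drug alone or as a fixed anchor-drug dose with five library-drug doses (not always all listed) in √10 steps. Relative viability is the nuclei count of treated wells divided by that of vehicle wells, and values are medians of duplicate plates.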

Cediranib + Dasatinib = compound: COc1cc2c(Oc3ccc4[nH]c(C)cc4c3F)ncnc2cc1OCCCN1CCCC1 [Cediranib] + Cc1nc(Nc2ncc(C(=O)Nc3c(C)cccc3Cl)s2)cc(N2CCN(CCO)CC2)n1 [Dasatinib] (partner 0.075 µM)
Summary of the method: as §1

Halofuginone + Lapatinib = compound: O=C(C[C@H]1NCCC[C@@H]1O)Cn1cnc2cc(Br)c(Cl)cc2c1=O (racemic) [Halofuginone] + CS(=O)(=O)CCNCc1ccc(-c2ccc3ncnc(Nc4ccc(OCc5cccc(F)c5)c(Cl)c4)c3c2)o1 [Lapatinib] (partner 2 µM)
Summary of the method: as §1

Cediranib + Phenformin = compound: COc1cc2c(Oc3ccc4[nH]c(C)cc4c3F)ncnc2cc1OCCCN1CCCC1 [Cediranib] + N=C(N)NC(=N)NCCc1ccccc1 [Phenformin] (partner 250 µM)
Summary of the method: as §1

Cell Line	relative viability (Decitabine + Lapatinib; first compound 0.04 µM)	relative viability (Decitabine + Lapatinib; first compound 0.1265 µM)	relative viability (Decitabine + Lapatinib; first compound 0.4 µM)	relative viability (Decitabine + Lapatinib; first compound 1.265 µM)	relative viability (Decitabine + Lapatinib; first compound 4 µM)	relative viability (Cediranib + Dasatinib; first compound 0.04 µM)	relative viability (Cediranib + Dasatinib; first compound 0.1265 µM)	relative viability (Cediranib + Dasatinib; first compound 0.4 µM)	relative viability (Cediranib + Dasatinib; first compound 1.265 µM)	relative viability (Cediranib + Dasatinib; first compound 4 µM)	relative viability (Halofuginone + Lapatinib; first compound 0.001 µM)	relative viability (Halofuginone + Lapatinib; first compound 0.003162 µM)	relative viability (Halofuginone + Lapatinib; first compound 0.01 µM)	relative viability (Halofuginone + Lapatinib; first compound 0.03162 µM)	relative viability (Halofuginone + Lapatinib; first compound 0.1 µM)	relative viability (Cediranib + Phenformin; first compound 0.04 µM)	relative viability (Cediranib + Phenformin; first compound 0.1265 µM)	relative viability (Cediranib + Phenformin; first compound 0.4 µM)	relative viability (Cediranib + Phenformin; first compound 1.265 µM)	relative viability (Cediranib + Phenformin; first compound 4 µM)
NCI-H460	0.902	1.06	0.277	0.18	0.114	0.51	0.634	0.466	0.459	0.562	0.948	1.27	0.967	0.573	0.11	0.528	0.576	0.527	0.512	0.56
NCI-H520	0.798	0.965	0.499	0.359	0.267	0.264	0.238	0.162	0.155	0.174	0.98	0.811	0.96	0.704	0.401	0.704	0.543	0.503	0.363	0.464
NCI-H596	1.12	1.06	0.576	0.954	0.783	0.67	0.616	0.548		0.618	1.06	1.18	1.02	1.07	0.661	0.723	0.703	0.722		0.718
NCI-H647	0.756	0.77	0.537	0.271	0.194	0.215	0.177	0.102	0.22	0.224	1.14	1.07	1.04	1.02	0.533	0.513	0.504	0.47	0.605	0.441
NCI-H650	0.786	0.532	0.339	0.356	0.292	0.434	0.458	0.434	0.453	0.482	1.12	0.48	1	0.775	0.515	0.497	0.388	0.475	0.476	0.437
NCI-H661	0.465	0.455	0.382	0.297	0.269	1.01	1.28	0.842	0.926	0.976	0.558	0.546	0.424	0.508	0.366	0.294	0.296	0.281	0.267	0.31
NCI-H727	0.709	0.659	0.483	0.447	0.433			0.358	0.337	0.367	0.704	0.676	0.949	0.798	0.508			0.483	0.528	0.533
NCI-H838	0.566	0.549	0.226	0.307	0.205	0.292	0.268	0.285	0.241	0.315	1.25	1.16	0.891	0.748	0.164	0.588	0.513	0.49	0.452	0.603
